Measurements taken from patent US8357707B2, “2-carboxamide cycloamino ureas” (Novartis AG, priority 2009, dated 2013).

Experiments:
Format in all cases: biochemical
[1] = target: T1, PI3Kα (Homo sapiens, UniProt P42336); experiment: PI3K KinaseGlo assay, PI3Kalpha; details: 10 nM enzyme, 1 μM ATP, 30 mins
T1 construct: His tag (C); made in house; host or cells: Tn5 insect cells, baculovirus BV-1075

[2] = target: T2, PI3Kβ (Homo sapiens, UniProt P42338); experiment: PI3K KinaseGlo assay, PI3Kbeta; details: 25 nM enzyme, 1 μM ATP, 30 mins
T2 construct: His tag (C); made in house; host or cells: Tn5 insect cells, baculovirus BV949 (vector LR280)
T2 sequence (P42338 with tags, fused parts or gaps): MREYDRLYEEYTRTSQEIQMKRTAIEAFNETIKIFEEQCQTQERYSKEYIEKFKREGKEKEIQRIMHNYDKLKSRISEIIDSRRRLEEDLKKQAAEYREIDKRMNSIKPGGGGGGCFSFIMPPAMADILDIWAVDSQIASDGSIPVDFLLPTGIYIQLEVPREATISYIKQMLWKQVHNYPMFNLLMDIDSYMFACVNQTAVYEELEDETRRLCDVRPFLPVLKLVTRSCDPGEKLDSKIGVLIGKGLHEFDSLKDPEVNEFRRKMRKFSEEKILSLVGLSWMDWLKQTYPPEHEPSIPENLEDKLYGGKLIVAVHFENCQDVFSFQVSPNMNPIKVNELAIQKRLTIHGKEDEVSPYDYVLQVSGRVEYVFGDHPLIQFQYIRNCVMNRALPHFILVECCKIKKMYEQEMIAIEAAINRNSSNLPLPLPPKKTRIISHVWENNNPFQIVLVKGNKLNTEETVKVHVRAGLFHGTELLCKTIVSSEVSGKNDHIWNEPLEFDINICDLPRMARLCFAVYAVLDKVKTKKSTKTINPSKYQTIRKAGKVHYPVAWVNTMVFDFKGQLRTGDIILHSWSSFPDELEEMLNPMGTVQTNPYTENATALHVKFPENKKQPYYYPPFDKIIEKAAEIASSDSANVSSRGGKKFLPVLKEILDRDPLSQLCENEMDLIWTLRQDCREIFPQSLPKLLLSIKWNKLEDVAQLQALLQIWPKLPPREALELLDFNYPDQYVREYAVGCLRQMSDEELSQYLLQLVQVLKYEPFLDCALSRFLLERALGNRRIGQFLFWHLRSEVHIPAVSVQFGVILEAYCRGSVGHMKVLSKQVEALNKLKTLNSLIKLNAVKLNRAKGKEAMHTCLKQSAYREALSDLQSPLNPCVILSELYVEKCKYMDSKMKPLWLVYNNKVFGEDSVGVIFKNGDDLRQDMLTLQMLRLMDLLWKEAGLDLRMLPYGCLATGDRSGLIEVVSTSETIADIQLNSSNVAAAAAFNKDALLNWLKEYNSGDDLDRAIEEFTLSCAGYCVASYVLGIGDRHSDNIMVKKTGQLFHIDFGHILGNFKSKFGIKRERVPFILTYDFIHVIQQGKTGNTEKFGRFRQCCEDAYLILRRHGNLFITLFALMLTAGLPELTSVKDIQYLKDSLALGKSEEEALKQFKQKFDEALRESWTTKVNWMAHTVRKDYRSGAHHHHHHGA

[3] = target: T3, PI3Kγ (Homo sapiens, UniProt P48736, Q459R); experiment: PI3K KinaseGlo assay, PI3Kgamma; details: 150 nM enzyme, 1 μM ATP, 90 mins
T3 construct: Constructs lacking the N-terminal 144 aa; His tag (C); made in house; host or cells: Tn5 insect cells, baculovirus BV950; construct from the Roger Williams lab (MRC LMB)
T3 sequence (P48736 with tags, fused parts or gaps Q459R): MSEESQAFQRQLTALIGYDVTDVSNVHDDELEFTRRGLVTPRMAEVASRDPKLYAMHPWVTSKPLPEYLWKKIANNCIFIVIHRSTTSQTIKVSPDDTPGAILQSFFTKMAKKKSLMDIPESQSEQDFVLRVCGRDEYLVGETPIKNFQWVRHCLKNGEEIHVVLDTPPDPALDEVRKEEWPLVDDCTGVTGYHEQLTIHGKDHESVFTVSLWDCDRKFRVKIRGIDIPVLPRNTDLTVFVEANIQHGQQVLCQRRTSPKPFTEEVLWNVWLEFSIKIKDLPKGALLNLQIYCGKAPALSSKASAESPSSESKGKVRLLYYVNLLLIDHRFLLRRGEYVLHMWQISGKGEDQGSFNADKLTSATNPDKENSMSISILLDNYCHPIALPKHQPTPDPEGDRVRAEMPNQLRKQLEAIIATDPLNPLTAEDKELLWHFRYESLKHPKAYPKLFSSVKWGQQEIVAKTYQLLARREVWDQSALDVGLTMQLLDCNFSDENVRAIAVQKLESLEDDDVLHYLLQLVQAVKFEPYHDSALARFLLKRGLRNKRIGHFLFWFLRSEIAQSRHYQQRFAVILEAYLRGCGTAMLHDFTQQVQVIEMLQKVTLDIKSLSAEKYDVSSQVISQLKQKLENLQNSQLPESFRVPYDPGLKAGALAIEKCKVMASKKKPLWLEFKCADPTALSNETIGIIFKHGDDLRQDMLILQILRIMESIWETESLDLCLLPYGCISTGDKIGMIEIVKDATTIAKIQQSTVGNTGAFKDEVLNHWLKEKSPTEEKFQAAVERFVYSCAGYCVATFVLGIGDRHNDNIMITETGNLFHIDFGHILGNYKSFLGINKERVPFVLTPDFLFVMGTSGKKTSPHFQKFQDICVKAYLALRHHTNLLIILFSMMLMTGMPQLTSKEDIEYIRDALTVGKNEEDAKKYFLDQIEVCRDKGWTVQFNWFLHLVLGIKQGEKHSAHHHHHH

[4] = target: T4, PI3Kδ (Homo sapiens, UniProt O00329); experiment: PI3K KinaseGlo assay, PI3Kdelta; details: 10 nM enzyme, 1 μM ATP, 30 mins
T4 construct: His tag (C); made in house; host or cells: Tn5 insect cells, baculovirus BV1060 (vector LR415)
T4 sequence (O00329 with tags, fused parts or gaps): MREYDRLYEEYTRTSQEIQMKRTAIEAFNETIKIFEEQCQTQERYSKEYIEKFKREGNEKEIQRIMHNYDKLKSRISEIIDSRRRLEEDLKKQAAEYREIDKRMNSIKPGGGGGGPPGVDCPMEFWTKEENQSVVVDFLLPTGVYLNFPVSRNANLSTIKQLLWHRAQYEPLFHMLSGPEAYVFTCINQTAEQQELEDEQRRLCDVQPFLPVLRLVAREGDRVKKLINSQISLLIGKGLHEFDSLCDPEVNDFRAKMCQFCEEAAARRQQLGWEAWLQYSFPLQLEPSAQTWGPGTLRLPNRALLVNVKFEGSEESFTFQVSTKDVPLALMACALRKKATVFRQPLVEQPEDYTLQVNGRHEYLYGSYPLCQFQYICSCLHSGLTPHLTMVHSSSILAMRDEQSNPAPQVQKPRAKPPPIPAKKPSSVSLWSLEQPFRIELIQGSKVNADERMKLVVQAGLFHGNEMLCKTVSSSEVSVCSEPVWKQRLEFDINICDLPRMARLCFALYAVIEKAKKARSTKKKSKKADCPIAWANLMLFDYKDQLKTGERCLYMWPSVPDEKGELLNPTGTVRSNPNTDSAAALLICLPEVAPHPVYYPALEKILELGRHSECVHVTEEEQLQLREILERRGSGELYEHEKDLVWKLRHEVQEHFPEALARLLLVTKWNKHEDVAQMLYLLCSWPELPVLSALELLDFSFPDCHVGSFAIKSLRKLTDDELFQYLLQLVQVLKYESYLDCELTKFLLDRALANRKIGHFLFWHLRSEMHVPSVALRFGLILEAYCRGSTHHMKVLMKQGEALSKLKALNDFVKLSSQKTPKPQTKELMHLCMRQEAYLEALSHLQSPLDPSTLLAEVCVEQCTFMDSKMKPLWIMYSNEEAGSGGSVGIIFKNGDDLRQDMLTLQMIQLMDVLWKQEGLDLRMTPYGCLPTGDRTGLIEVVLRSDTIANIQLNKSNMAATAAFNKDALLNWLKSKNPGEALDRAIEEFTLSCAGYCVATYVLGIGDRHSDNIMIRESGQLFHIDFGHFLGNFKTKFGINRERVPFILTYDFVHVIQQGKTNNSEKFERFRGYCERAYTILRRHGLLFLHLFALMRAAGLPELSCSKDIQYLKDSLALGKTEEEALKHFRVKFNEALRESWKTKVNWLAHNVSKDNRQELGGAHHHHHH

T1 sequence (P42336 with tags, fused parts or gaps): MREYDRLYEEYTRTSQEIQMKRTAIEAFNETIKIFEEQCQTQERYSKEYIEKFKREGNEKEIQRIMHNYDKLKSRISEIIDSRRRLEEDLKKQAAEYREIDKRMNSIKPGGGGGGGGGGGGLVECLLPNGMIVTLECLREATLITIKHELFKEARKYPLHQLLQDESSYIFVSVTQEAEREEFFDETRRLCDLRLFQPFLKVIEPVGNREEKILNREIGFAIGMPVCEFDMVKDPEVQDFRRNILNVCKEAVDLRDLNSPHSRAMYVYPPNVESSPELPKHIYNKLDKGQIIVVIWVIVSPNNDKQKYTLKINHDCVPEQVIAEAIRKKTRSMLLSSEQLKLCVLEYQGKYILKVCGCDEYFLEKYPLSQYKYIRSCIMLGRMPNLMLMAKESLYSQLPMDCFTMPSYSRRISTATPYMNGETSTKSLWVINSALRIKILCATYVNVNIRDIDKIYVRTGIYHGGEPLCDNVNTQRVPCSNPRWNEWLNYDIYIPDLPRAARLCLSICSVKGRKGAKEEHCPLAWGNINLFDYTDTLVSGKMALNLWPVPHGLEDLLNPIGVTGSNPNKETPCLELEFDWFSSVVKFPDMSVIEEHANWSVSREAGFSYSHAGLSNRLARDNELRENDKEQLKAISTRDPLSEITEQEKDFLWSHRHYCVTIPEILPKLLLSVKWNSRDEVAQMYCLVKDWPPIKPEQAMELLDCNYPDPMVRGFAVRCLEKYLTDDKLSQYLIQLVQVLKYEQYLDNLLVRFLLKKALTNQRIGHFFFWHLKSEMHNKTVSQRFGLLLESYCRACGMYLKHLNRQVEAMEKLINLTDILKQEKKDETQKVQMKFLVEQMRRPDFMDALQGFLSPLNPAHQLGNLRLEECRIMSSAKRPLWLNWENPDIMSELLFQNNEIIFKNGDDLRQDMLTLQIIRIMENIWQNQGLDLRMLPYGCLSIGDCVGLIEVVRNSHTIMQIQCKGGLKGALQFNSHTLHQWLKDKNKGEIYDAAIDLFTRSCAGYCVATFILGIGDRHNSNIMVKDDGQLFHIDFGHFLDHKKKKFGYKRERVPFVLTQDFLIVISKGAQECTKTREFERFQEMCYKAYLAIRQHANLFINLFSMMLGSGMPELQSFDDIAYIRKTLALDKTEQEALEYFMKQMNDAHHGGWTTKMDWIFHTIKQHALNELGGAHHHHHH

IC50 [1] [nM] | IC50 [2] [nM] | IC50 [3] [nM] | IC50 [4] [nM] | SMILES
18 | 449 | 282 | 54 | CN(Cc1cccc(F)c1)C[C@@]1(C(N)=O)CCCN1C(=O)Nc1nc2c(s1)-c1nc(C(C)(C)C)ncc1CC2 [Example 10, (R)-2-{[(3-Fluoro-benzyl)-methyl-amino]-methyl}-pyrrolidine-1,2-dicarboxylic acid 2-amide 1-[(8-tert-butyl-4,5-dihydro-thiazolo[4,5-h]quinazolin-2-yl)-amide]]
5.5 | 588 | 123 | 77 | CCN(CC)c1ncc2c(n1)-c1sc(NC(=O)N3CC[C@@H]4C[C@@]43C(N)=O)nc1CC2 [Example 19, (1S,5R)-2-Aza-bicyclo[3.1.0]hexane-1,2-dicarboxylic acid 1-amide 2-[(8-diethylamino-4,5-dihydro-thiazolo[4,5-h]quinazolin-2-yl)-amide]]
8 | 389 | 153 | 236 | CCN(CC)c1ncc2c(n1)-c1sc(NC(=O)N3C[C@@H](F)C[C@H]3C(N)=O)nc1CC2 [Example 17, (2S,4S)-4-Fluoro-pyrrolidine-1,2-dicarboxylic acid 2-amide 1-[(8-diethylamino-4,5-dihydro-thiazolo[4,5-h]quinazolin-2-yl)-amide]]
5.5 | 47 | 153 | 46 | CCN(CC)c1ncc2c(n1)-c1sc(NC(=O)N3CCC[C@@]3(COC)C(N)=O)nc1CC2 [Example 5, (R)-2-Methoxymethyl-pyrrolidine-1,2-dicarboxylic acid 2-amide 1-[(8-diethylamino-4,5-dihydro-thiazolo[4,5-h]quinazolin-2-yl)-amide]]
9.5 | 276 | 180 | 198 | CCN(CC)c1ncc2c(n1)-c1sc(NC(=O)N3CCC[C@@]3(CO)C(N)=O)nc1CC2 [Example 8, (R)-2-Hydroxymethyl-pyrrolidine-1,2-dicarboxylic acid 2-amide 1-[(8-diethylamino-4,5-dihydro-thiazolo[4,5-h]quinazolin-2-yl)-amide]]
9 | 277 | 104 | 118 | CCN(CC)c1ncc2c(n1)-c1sc(NC(=O)N3CC[C@H]3C(N)=O)nc1CC2 [Example 13, (S)-Azetidine-1,2-dicarboxylic acid 2-amide 1-[(8-diethylamino-4,5-dihydro-thiazolo[4,5-h]quinazolin-2-yl)-amide]]
5.5 | 297 | 74 | 60 | CCN(CC)c1ncc2c(n1)-c1sc(NC(=O)N3C[C@H](F)C[C@H]3C(N)=O)nc1CC2 [Example 16, (2S,4R)-4-Fluoro-pyrrolidine-1,2-dicarboxylic acid 2-amide 1-[(8-diethylamino-4,5-dihydro-thiazolo[4,5-h]quinazolin-2-yl)-amide]]
4.5 | 397 | 97 | 72 | CCN(CC)c1ncc2c(n1)-c1sc(NC(=O)N3C[C@H](O)C[C@H]3C(N)=O)nc1CC2 [Example 27, (2S,4R)-4-Hydroxy-pyrrolidine-1,2-dicarboxylic acid 2-amide 1-[(8-diethylamino-4,5-dihydro-thiazolo[4,5-h]quinazolin-2-yl)-amide]]
